Assay results reported in patent US9730445B2, “Herbicidal compositions comprising 4-amino-3-chloro-5-fluoro-6-(4-chloro-2-fluoro-3-methoxyphenyl) pyridine-2-carboxylic acid or a derivative thereof and fungicides” (DOW AGROSCIENCES LLC, priority 2013, dated 2017).

Tests used:
Assay in all cases: Postemergence foliar-applied weed control, direct-seeded rice (greenhouse)
LEFCH = assay type: in vivo, Leptochloa chinensis (L.) Nees (Chinese sprangletop); settings: 21 DAA
Protocol: (§1) Seeds or nutlets of the desired test plant species were planted in a soil matrix prepared by mixing aloam or sandy loam soil (e.g., 28.6 percent silt, 18.8 percent clay, and 52.6 percent sand, with a pH of about 5.8 and an organic matter content of about 1.8 percent) and calcareous grit in an 80 to 20 ratio. The soil matrix was contained in plastic pots with a volume of 1 quart and a surface area of 83.6 square centimeters (cm^2). […] The plants were grown for 8-22 days in a greenhouse with an approximate 14 hour (h) photoperiod which was maintained at about 29° C. during the day and 26° C. during the night. Nutrients (Peters Excel® 15-5-15 5-Ca 2-Mg and iron chelate) were applied in the irrigation solution as needed and water was added on a regular basis. Supplemental lighting was provided with overhead metal halide 1000-Watt lamps as necessary. The plants were employed for testing when they reached the first through fourth true leaf stage.
(§2) Treatments consisted of the acid or esters of 4-amino-3-chloro-5-fluoro-6-(4-chloro-2-fluoro-3-methoxy-phenyl)pyridine-2-carboxylic acid (Compound A), each formulated as an SC (suspension concentrate), and various fungicidal components alone and in combination. Forms of compound A were applied on an acid equivalent basis.
(§3) For treatments comprised of formulated compounds, measured amounts of compounds were placed individually in 25 mL glass vials and diluted in a volume of 1.25% volume per volume (v/v) Agri-Dex® crop oil concentrate to obtain 12× stock solutions. […] Application solutions were prepared by adding an appropriate amount of each stock solution (e.g., 1 mL) and diluted to the appropriate final concentrations with the addition of […] of an aqueous mixture of 1.25% (v/v) crop oil concentrate so that the final spray solutions contained 1.25+/−0.05% (v/v) crop oil concentrate.
(§4) For treatments comprised of technical compounds, weighed amounts can be placed individually in 25 mL glass vials and dissolved in a volume of 97:3 volume per volume (v/v) acetone/dimethyl sulfoxide (DMSO) to obtain 12× stock solutions. […] When technical materials are used, the concentrated stock solutions can be added to the spray solutions so that the final acetone and DMSO concentrations of the application solutions are 16.2% and 0.5%, respectively.
(§5) As required, additional water and/or 97:3 v/v acetone/DMSO was added to individual application solutions so that the final acetone and DMSO concentrations of the application solutions being compared were 8.1% and 0.25%, respectively
(§6) All stock solutions and applications solutions were visually inspected for compound compatibility prior to application. Spray solutions were applied to the plant material with an overhead Mandel track sprayer equipped with 8002E nozzles calibrated to deliver 187 L/ha over an application area of 0.503 square meters (m^2) at a spray height of 18 to 20 inches (46 to 50 cm) above average plant canopy height. Control plants were sprayed in the same manner with the solvent blank.
(§7) The treated plants and control plants were placed in a greenhouse as described above and watered by sub-irrigation to prevent wash-off of the test compounds. After approximately 3 weeks, the condition of the test plants as compared with that of the untreated plants was determined visually and scored on a scale of 0 to 100 percent where 0 corresponds to no injury or growth inhibition and 100 corresponds to complete kill.
(§8) Colby's equation was used to determine the herbicidal effects expected from the mixtures (Colby, S. R. Calculation of the synergistic and antagonistic response of herbicide combinations. Weeds 1967, 15, 20-22.).
(§9) The following equation was used to calculate the expected activity of mixtures containing two active ingredients, A and B: Expected=A+B−(A×B/100)

ECHCG = assay type: in vivo, Echinochloa crus-galli (L.) P. Beauv. (barnyardgrass)
Protocol: as §1, §2, §3, §4, §5, §6, §7, §8, §9

DIGSA = assay type: in vivo, Digitaria sanguinalis (L.) Scop. (large crabgrass)
Excerpt: Seeds or nutlets of the desired test plant species were planted in a soil matrix prepared by mixing aloam or sandy loam soil (e.g., 28.6 percent silt, 18.8 percent clay, and 52.6 percent sand, with a pH of about 5.8 and an organic matter content of about 1.8 percent) and calcareous grit in an 80 to 20 ratio. The soil matrix was contained in plastic pots with a volume of 1 quart and a surface area of 83.6 square centimeters (cm^2). When required to ensure good germination and healthy plants, a fungicide treatment and/or other chemical or physical treatment was applied. The plants were grown for 8-22 days in a greenhouse with an approximate 14 hour (h) photoperiod which was maintained at about 29° C. during the day and 26° C. during the night. Nutrients (Peters Excel® 15-5-15 5-Ca 2-Mg and iron chelate) were applied in the irrigation solution as needed and water was added on a regular basis. Supplemental lighting was provided with overhead metal halide 1000-Watt lamps as necessary. The plants were employed for testing when they reached the first through fourth true leaf stage.
as §2
Treatment requirements were calculated based upon the rates being tested, the concentration of active ingredient or acid equivalent in the formulation and a 12 milliliter (mL) application volume at a rate of 187 liters per hectare (L/ha).
as §3, §4, §5, §6
as §7, with “kill. […]” for “kill.”

ECHOR = assay type: in vivo, Echinochloa oryzoides (Ard.) Fritsch (early watergrass)
Protocol: as §1, §2
For treatments comprised of formulated compounds, measured amounts of compounds were placed individually in 25 mL glass vials and diluted in a volume of 1.25% volume per volume (v/v) Agri-Dex® crop oil concentrate to obtain 12× stock solutions. […]
as §7, with “kill. […]” for “kill.”

IPOHE = assay type: in vivo, Ipomoea hederacea (L.) Jacq. (ivyleaf morningglory)
Protocol: as §1, §2, §3, §4, §5, §6, §7, §8, §9

CYPIR = assay type: in vivo, Cyperus iria L. (rice flatsedge); settings: 21 DAA, r29-30 ester 8/16 g ae/ha alone, r31-33 kasugamycin 17.5/35/70 g ai/ha alone, r34-39 ester 8/16 at each of 17.5, 35, 70
Protocol: as §1, §2, §3, §4, §5, §6, §7, §8, §9

CYPES = assay type: in vivo, Cyperus esculentus L. (yellow nutsedge); settings: r45 ester 8 g ae/ha alone, r46-48 kasugamycin 17.5/35/70 g ai/ha alone, r49-51 ester 8 + 17.5/35/70
Protocol: as §1, §2, §3, §4, §5, §6
as §7, with “kill. […]” for “kill.”

[1] = r9-11 acid 5.3/10.6/21.2 g ae/ha alone, r12 difenoconazole 200 g ai/ha alone, r13-15 acid 5.3/10.6/21.2 + 200
[2] = r10-12 ester 4.38/8.75/17.5 g ae/ha alone, r13 difenoconazole 200 g ai/ha alone, r14-16 ester 4.38/8.75/17.5 + 200
[3] = r9-11 ester 8/16/32 g ae/ha alone, r12-14 kasugamycin 17.5/35/70 g ai/ha alone, r15-23 ester 8/16/32 at each of 17.5, 35, 70

CC1COC(Cn2cncn2)(c2ccc(Oc3ccc(Cl)cc3)cc2Cl)O1 (mixture of isomers) [Difenoconazole, cis, trans-3-chloro-4-[4-methyl-2-(1H-1,2,4-triazol-1-ylmethyl)-1,3,dioxolan-2-yl]phenyl 4-chlorophenyl ether, reference compound]
0%: Visual Weed Control (%)—21 DAA LEFCH Obs (LEFCH; [1]) | Visual Weed Control (%) - 21 DAA LEFCH Obs (LEFCH; [2]) | Visual Weed Control (%) - 21 DAA LEFCH Obs (LEFCH; r42-43 ester 16/32 g ae/ha alone, r44-46 difenoconazole 50/100/200 g ai/ha alone, r47-52 ester 16/32 at each of 50, 100, 200) | Visual Weed Control (%)—21 DAA ECHCG Obs (ECHCG; [1]) | Visual Weed Control (%) - 21 DAA ECHCG Obs (ECHCG; r58-60 ester 8/16/32 g ae/ha alone, r61-63 difenoconazole 50/100/200 g ai/ha alone, r64-72 ester 8/16/32 at each of 50, 100, 200) | Visual Weed Control (%)—21 DAA DIGSA Obs (DIGSA; [1]) | Visual Weed Control (%) - 22 DAA DIGSA Obs (DIGSA; 22 DAA, r22-24 ester 8/16/32 g ae/ha alone, r25-27 difenoconazole 50/100/200 g ai/ha alone, r28-36 ester 8/16/32 at each of 50, 100, 200) | Visual Weed Control (%) - 21 DAA ECHOR Obs (ECHOR; r78-80 ester 8/16/32 g ae/ha alone, r81-83 difenoconazole 50/100/200 g ai/ha alone, r84-92 ester 8/16/32 at each of 50, 100, 200) | Visual Weed Control (%) - 21 DAA IPOHE Obs (IPOHE; [2])

CC1OC(OC2C(O)C(O)C(O)C(O)C2O)C(N)CC1NC(=N)C(=O)O.Cl [Kasugamycin, 1L-1,3,4/2,5,6-1-deoxy-2,3,4,5,6,-pentahydroxycyclohexyl 2-amino-2,3,4,6-tetradeoxy-4-(α-iminoglycino)-α-D-arabino-hexopyranoside hydrochloride hydrate, reference compound]
0%: Visual Weed Control (%)—21 DAA LEFCH Obs (LEFCH; [3]) | Visual Weed Control (%)—21 DAA CYPIR Obs (CYPIR) | Visual Weed Control (%)—21 DAA CYPES Obs (CYPES) | Visual Weed Control (%)—21 DAA DIGSA Obs (DIGSA; [3]) | Visual Weed Control (%)—21 DAA ECHOR Obs (ECHOR; [3]) | Visual Weed Control (%)—21 DAA IPOHE Obs (IPOHE; [3])
